Data published in patent US4264576A, “Contraceptive methods and compositions” (Eli Lilly and Company, priority 1980, dated 1981).
Values belong to the molecule of their own block, whether it stands above or below them.

What was measured:
[1] = molecular target: acrosin (Homo sapiens, UniProt P10323); assay: Acrosin inhibition in vitro; assay type: biochemical; details: statement in words
[2] = Drug release rate from dimethylpolysiloxane rubber compositions in calcium-free Ringers solution; assay type: physicochemical; details: footnote of Table II; Calc. on basis of hyaluronidase inhibition
Experimental: An appropriate sample of a dimethylpolysiloxane rubber composition in which is incorporated the test compound is placed in a suitable amount of calcium-free Ringers solution, and the sample and solution are incubated together at 37° C. for a period of time (e.g. 24 hours). […] The equivalent amount of test compound in the removed solution is calculated from standard inhibition curves in which hyaluronidase inhibition is plotted against concentration of the test compound. The calculated result are expressed as micrograms of test compound released per day.
The above test may be repeated for an extended period of time, for example, for 1 day to 360 days, or more, by adding fresh calcium-free Ringer's solution after each removal of the solution for assay.
The sample weight was 4 mg. and the amount of added solution was 1 ml.

[3] = test system: Dutch Belted virgin rabbits; assay: Antifertility effects in vivo by intrauterine administration; design: species or system rabbit; details: 40-mg dimethylpolysiloxane rubber rod, 10% W/W
Experimental: Dutch Belted virgin rabbits, each weighing 3-4 pounds, are randomly selected and anesthetized with sodium pentobarbital (50 μg./ml.) administered by IV drip. The uterus of each animal is exposed and a 40-mg. sample in the shape of a rod (3 mm. in diameter) of dimethylpolysiloxane rubber (as prepared in Example 3) containing 10% W/W of sodium sulfopropyl n-dodecanoate is sutured into the right uterine horn at a random location in between the cervix and the utero-tubal junction. The left horn is left untreated to serve as control. The rubber rod is placed into the uterine horn by passing a curved needle through it and through the uterine wall pulling the rod into the uterine lumen. The entry is closed by suturing. Animals (blank) are similarly treated using unmedicated dimethylpolysiloxane rubber to serve as a second group of controls. The animals are given 300,000 units of Duracillin® per day (in four doses) and are allowed to recover for 14 days. Each animal is bred to a male of proven fertility and is immediately given a dose (IV) of appropoximately 100 units of human chorionic gonadotropin (HCG) to facilitate ovulation. Fourteen days after breeding, the animal are sacrificed by cervical dislocation and the uterine horns are examined for implanted embryos. The number of embryos per uterine horn are recorded.

[4] = test system: virgin dutch belted female rabbit; assay: Antifertility effects in vivo by intravaginal administration; details: 1 ml of equal volumes Ky-jelly and 10 mg./ml. solution, before breeding, 6 animals
Experimental: Equal volumes of Ky-jelly® and either Ca^++ free Ringer's solution or a 10 mg./ml. solution of the compound to be tested in Ca^++ free Ringer's solution are well mixed. One milliliter of this is placed into the vagina of a virgin dutch belted female rabbit using a syringe. The female is then immediately bred to a fertile buck. The female is injected I.V. with 100 units of human chorionic gonadotrophin to assure a good ovulation rate.
After approximately 14 days the females are sacrificed by cervical dislocation and the genital system examined for the number of embryos.

[5] = test system: cumulus oophorus; assay: Removal of cumulus oophorus from ova by hyaluronidase, in vitro; assay type: cell-based, rabbit; details: 10 μl of 10 mg./ml. compound solution in 1 ml calcium-free Ringer's solution, 37° C.
Experimental: In the absence of sodium sulfopropyl dodecanoate, complete removal of the cumulus oophorus is observed.
Female rabbits are given 100 units of pregnant mares serum (PMS), IM, and 134 units of HCG, IV. After 13 hours the animals are sacrificed, and the ovaries are excised. The ovaries are submerged in calcium-free Ringer's solution containing 20% rabbit serum which had been heated to 55° C. for 20 minutes. Ova with cumulus intact are removed and placed in calcium-free Ringer's solution for incubation at 37° C. Hyaluronidase (10 μl.) of a 10 mg./ml. solution in calciumfree Ringer's solution is added to 20 ova in 1 ml. of the incubation medium. To 10 ova in the same medium is added 10 μl. of a solution of sodium sulfopropyl n-dodecanoate (10 mg./ml.) in calcium-free Ringer's solution. To 10 other ova in the same media is added 10 μl. of calcium-free Ringer's solution as control. The mixtures are incubated at 37° C., and the cumulus oophorus is examined at 15 minute intervals with an American Optical stereomicroscope. In the absence of sodium sulfopropyl n-dodecanoate, the cumulus oophorus is completely removed.

Chain of acrosin (P10323 20-421, species assumed): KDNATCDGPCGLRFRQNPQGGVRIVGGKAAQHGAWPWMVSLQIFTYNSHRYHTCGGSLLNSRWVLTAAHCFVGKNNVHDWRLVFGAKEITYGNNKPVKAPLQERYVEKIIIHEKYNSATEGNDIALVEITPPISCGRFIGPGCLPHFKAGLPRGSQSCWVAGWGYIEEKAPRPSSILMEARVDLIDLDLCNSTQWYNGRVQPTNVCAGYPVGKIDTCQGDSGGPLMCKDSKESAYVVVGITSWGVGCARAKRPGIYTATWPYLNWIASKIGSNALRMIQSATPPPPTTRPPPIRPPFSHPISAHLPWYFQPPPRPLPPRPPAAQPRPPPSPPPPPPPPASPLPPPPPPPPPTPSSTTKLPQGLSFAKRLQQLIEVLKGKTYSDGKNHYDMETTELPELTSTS

anti-acrosin activity (inhibition in vitro of the action of acrosin) [1]: anti-acrosin activity
Molecule: CCCC/C=C/CCCCCCCC(=O)OCCCS(=O)(=O)O [trans- CH3 (CH2)3 CHCH(CH2) 7, n=3, sodium sulfopropyl myristelaidate]

Molecule: CCCCCCCCCCCC(=O)OCCCS(=O)(=O)O.[Na] [CH3 (CH2)10, n=3, sodium sulfopropyl dodecanoate]
Release rate from dimethylpolysiloxane, in vitro [2]: 1 to 3 mg/day | Total No. of embryos ([3]; in right uterine horn, 11 horns, 14 days after breeding): 1 | [drawing 14] (number of embryos per uterine horn) ([3]; in uterine horn, p < .001 compared to untreated and to blank): 0.09 | Avg. No. of Embryos per animal [4]: 0 | No. of embryos ([4]; approximately 14 days): 0 | state of the cumulus oophorus of rabbit ova incubated with hyaluronidase [5]: the cumulus oophorus remain substantially intact | state of the cumulus oophorus of rabbit ova incubated with hyaluronidase ([5]; listed as sodium sulfopropyl n-dodecanoate): the cumulus remains substantially intact

Molecule: CCCC/C=C\CCCCCCCC(=O)OCCCS(=O)(=O)O.[Na] [cis- CH3 (CH2)3 CHCH(CH2)7, n=3, sodium sulfopropyl myristoleate]
anti-acrosin activity (inhibition in vitro of the action of acrosin) [1]: anti-acrosin activity

anti-acrosin activity (inhibition in vitro of the action of acrosin) [1]: anti-acrosin activity
Molecule: sodium sulfopropyl 16-methylheptadecanoate

anti-acrosin activity (inhibition in vitro of the action of acrosin) [1]: anti-acrosin activity
Molecule: sodium sulfopropyl 15-methylheptadecanoate
